# Assay results taken from the supplement of paper PMC10307832.
# What was measured:
# Assay in all cases: relative viability (nuclei count vs DMSO), 5 days (fraction); higher = more cells survive
# [1] = compound: CN1C=C(C2=CC=CC=C21)/C=C\3/C4=C(C=CC=N4)NC3=O + CCNC(=O)c1noc(-c2cc(C(C)C)c(O)cc2O)c1-c1ccc(CN2CCOCC2)cc1 [Luminespib] (partner 0.01 µM)
# In short: (§1)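 Dosing by pin tool came one day after lung cancer cell lines were seeded in 1536-well plates, using either one drug or a fixed anchor-drug dose plus five library-drug doses (not always all listed) in √10 steps. After 5 days, nuclei were counted on 4× images. Relative viability is treated-well nuclei count divided by vehicle-well nuclei count, and values are medians of duplicate plates.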
# [2] = compound: CC(=O)Nc1cccc(-n2c(=O)n(C3CC3)c(=O)c3c(Nc4ccc(I)cc4F)n(C)c(=O)c(C)c32)c1 [Trametinib] + C[C@]1(O)C[C@@H](c2nc(-c3ccc4ccc(-c5ccccc5)nc4c3)c3c(N)nccn32)C1 [Linsitinib] (partner 1 µM)
# In short: as §1
# [3] = compound: CC(=O)Nc1cccc(-n2c(=O)n(C3CC3)c(=O)c3c(Nc4ccc(I)cc4F)n(C)c(=O)c(C)c32)c1 [Trametinib] + Nc1nc2[nH]cc(CCc3ccc(C(=O)N[C@@H](CCC(=O)O)C(=O)O)cc3)c2c(=O)[nH]1 [Pemetrexed] (partner 0.2 µM)
# In short: as §1
# [4] = compound: CN1C=C(C2=CC=CC=C21)/C=C\3/C4=C(C=CC=N4)NC3=O + Cc1nc(Nc2ncc(C(=O)Nc3c(C)cccc3Cl)s2)cc(N2CCN(CCO)CC2)n1 [Dasatinib] (partner 0.075 µM)
# In short: as §1
cell line,measurement,setting,value
UMC-11,relative viability,[1]; first compound 0.02 µM,0.764
same,relative viability,[1]; first compound 0.06325 µM,0.943
same,relative viability,[1]; first compound 0.2 µM,1
same,relative viability,[1]; first compound 0.6325 µM,1.25
same,relative viability,[1]; first compound 2 µM,1.18
same,relative viability,[2]; first compound 0.0025 µM,1.01
same,relative viability,[2]; first compound 0.007906 µM,1.04
same,relative viability,[2]; first compound 0.025 µM,0.929
same,relative viability,[2]; first compound 0.07906 µM,1.07
same,relative viability,[2]; first compound 0.25 µM,0.974
same,relative viability,[3]; first compound 0.0025 µM,0.804
same,relative viability,[3]; first compound 0.007906 µM,0.741
same,relative viability,[3]; first compound 0.07906 µM,0.719
same,relative viability,[3]; first compound 0.25 µM,0.701
same,relative viability,[4]; first compound 0.02 µM,0.556
same,relative viability,[4]; first compound 0.06325 µM,0.449
same,relative viability,[4]; first compound 0.2 µM,0.367
same,relative viability,[4]; first compound 0.6325 µM,0.41
same,relative viability,[4]; first compound 2 µM,0.632
